# Reference: article PMC8128165, “Effect of amino acids and amines on the activity of the recombinant ι-carbonic anhydrase from the Gram-negative bacterium Burkholderia territorii” (Journal of Enzyme Inhibition and Medicinal Chemistry, 2021)
# Tested on: BteCAι
# Assay: stopped-flow CO2 hydration assay (activation)
# Assay type: biochemical, Burkholderia territorii
# Conditions: activation constant (not an association constant); CO2 substrate; 10 mM HEPES pH 7.5, 0.1 M NaClO4; 25 °C; activator
# Text: stopped-flow CO2 hydration assay (activation) on BteCAι
row,Compound,KA (μM)* / BteCAι^b
1,"N[C@@H](Cc1ccc(O)c(O)c1)C(=O)O [compound 5, L-DOPA]",4.3 µM
2,"N[C@@H](Cc1c[nH]c2ccccc12)C(=O)O [compound 7, L-Trp]",10.2 µM
3,"NCCc1ccc(O)c(O)c1 [compound 13, Dopamine]",8.7 µM
4,"CNC[C@H](O)c1ccc(O)c(O)c1 [compound 19, L-Adrenaline]",9.7 µM
5,"NCCc1c[nH]c2ccc(O)cc12 [compound 14, Serotonin]",13.3 µM
6,"NCCc1c[nH]cn1 [compound 12, Histamine]",6.0 µM
7,"N[C@H](Cc1ccccc1)C(=O)O [compound 4, D-Phe]",9.4 µM
8,"Nc1ccc(C[C@H](N)C(=O)O)cc1 [compound 11, 4-H2N-L-Phe]",6.9 µM
9,"NCCN1CCNCC1 [compound 17, 1-(2-Aminoethyl)-piperazine]",3.9 µM
10,"N[C@H](CCC(=O)O)C(=O)O [compound 23, D-Glu]",8.5 µM
11,"N[C@H](Cc1ccc(O)c(O)c1)C(=O)O [compound 6, D-DOPA]",11.7 µM
12,"N[C@H](Cc1c[nH]c2ccccc12)C(=O)O [compound 8, D-Trp]",6.1 µM
13,"N[C@@H](Cc1ccc(O)cc1)C(=O)O [compound 9, L-Tyr]",8.0 µM
14,"N[C@@H](Cc1cnc[nH]1)C(=O)O [compound 1, L-His]",8.6 µM
15,"N[C@@H](CC(=O)O)C(=O)O [compound 21, L-Asp]",8.4 µM
16,"NC(=O)CC[C@H](N)C(=O)O [compound 24, L-Gln]",5.8 µM
17,"N[C@H](Cc1c[nH]cn1)C(=O)O [compound 2, D-His]",6.2 µM
18,"N[C@H](Cc1ccc(O)cc1)C(=O)O [compound 10, D-Tyr]",7.3 µM
19,"NCCN1CCOCC1 [compound 18, 4-(2-Aminoethyl)-morpholine]",12.0 µM
